Laboratory results as given in patent US9051351B2, “Hepatocyte growth factor mimics as therapeutic agents” (Washington State University, priority 2011, dated 2015).
Entries after “also recorded” stand apart in the source; their conditions may differ. Each block holds one compound with its values, some of them ahead of it. Where a SMILES comes first, the peptide text is derived from it. [ ]: non-standard residue; d: D form. dNle = CCCC[C@@H](N)C(=O)O; Ahx = NCCCCCC(=O)O

Columns and labels:
[1] = in vitro; conditions: male, rat, pH 7.38
[2] = molecular target: T1, human HGF (Homo sapiens, UniProt P14210); experiment: HGF dimerization (PAGE, silver staining); assay type: biochemical; conditions: analog 10^−10 M, heparin, 30 minute incubation
T1 construct: purchased R&D Systems (Minneapolis, Minn.)
T1 sequence (P14210 32-728): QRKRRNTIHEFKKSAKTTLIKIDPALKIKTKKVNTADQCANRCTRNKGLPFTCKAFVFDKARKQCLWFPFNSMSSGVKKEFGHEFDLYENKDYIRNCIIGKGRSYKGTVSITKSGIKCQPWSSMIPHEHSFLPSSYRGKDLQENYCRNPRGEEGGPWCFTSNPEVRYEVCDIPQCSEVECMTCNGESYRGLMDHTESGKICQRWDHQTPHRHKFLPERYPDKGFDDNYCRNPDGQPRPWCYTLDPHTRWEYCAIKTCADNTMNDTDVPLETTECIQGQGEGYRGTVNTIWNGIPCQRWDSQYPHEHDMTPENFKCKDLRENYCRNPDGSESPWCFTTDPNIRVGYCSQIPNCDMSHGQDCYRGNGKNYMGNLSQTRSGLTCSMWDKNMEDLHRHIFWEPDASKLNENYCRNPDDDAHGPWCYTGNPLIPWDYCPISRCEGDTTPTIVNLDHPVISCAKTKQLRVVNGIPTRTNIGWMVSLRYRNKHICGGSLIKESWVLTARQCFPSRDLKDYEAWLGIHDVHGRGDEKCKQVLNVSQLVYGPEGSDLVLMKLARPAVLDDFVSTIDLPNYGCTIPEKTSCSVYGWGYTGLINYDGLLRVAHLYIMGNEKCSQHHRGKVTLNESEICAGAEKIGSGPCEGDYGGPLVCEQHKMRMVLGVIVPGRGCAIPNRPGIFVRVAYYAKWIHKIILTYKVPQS
Experimental: HGF dimerization was assessed using PAGE followed by silver staining (Kawas et al., 2011). Human HGF at a concentration of 0.08 ng/μl with or without 6-AH analogs was incubated with heparin at a final concentration of 5 μg/ml. Loading buffer was then added to each sample and the mixture separated by native PAGE using gradient Criterion XT precast gels (4-12% Bis-Tris; Biorad Laboratories, Hercules, Calif.). Next the gel was silver stained for the detection of the HGF monomers and dimers. Bands were quantitated from digital images using a UVP phosphoimager (Upland, Calif.).

[3] = test system: MDCK cells; experiment: Inhibition of HGF-dependent scattering in MDCK cells; assay type: cell-based, canine; conditions: HGF 20 ng/ml, 48 h
Experimental: (§1) MDCK cells were grown to 100% confluency on the coverslips in six-well plates and washed twice with PBS. The confluent coverslips were then aseptically transferred to new six well plates containing 900 μl serum free DMEM. Norleual, Hinge peptide, and/or HGF (20 ng/ml) were added to appropriate wells. Control wells received PBS vehicle. Plates were incubated at 37° C. with 5% CO2 for 48 hours. Media was removed and cells were fixed with methanol. Cells were stained with Diff-Quik Wright-Giemsa (Dade-Behring, Newark, Del.) and digital images were taken. Coverslips were removed with forceps and more digital images were captured. Pixel quantification of images was achieved using Image J and statistics were performed using Prism 5 and InStat v.3.05.
as §1, with “h.” for “hours.”, “Cells were stained with Diff-Quik Wright-Giemsa (Dade-Behring, Newark, Del.) and digital images were taken. Coverslips were removed with forceps and more digital images were captured.” left out, “v.3.05 (GraphPad; San Diego, Calif.).” for “v.3.05.”

[4] = test system: MDCK cells; experiment: HGF-dependent MDCK cell proliferation (MTT); assay type: cell-based, canine; conditions: analog 10^−10M, HGF 10 ng/ml, 4 days
Experimental: 5000 MDCK cells were seeded into the wells of a 96 well plates in 10% FBS DMEM. To induce cellular quiescence, the cells were serum deprived for 24 h prior to initiating the treatments. Following serum starvation, 10 ng/ml HGF alone and with various concentrations of 6-AH analogs or PBS vehicle were added to the media. The cells were allowed to grow under these conditions for 4 days with a daily addition of 6-AH analogs. On the fourth day, 1 mg/ml of […] (MTT, Sigma-Aldrich) prepared in PBS was added to the cells and incubated for 4 h. Dimethyl sulfoxide diluted in a 0.01M glycine buffer was added to solubilize the cell membranes and the absorbance of reduced MTT in the buffer was quantitated at 590 nm using a plate reader (Biotek Synergy 2, Winooski, Vt.). HGF-dependent proliferation was determined by subtracting the basal proliferation (in the absence of HGF) from total proliferation rates in groups containing HGF.

[5] = test system: hippocampal neurons; experiment: Immunocytochemistry: percent correlation of spines to synaptic markers; assay type: cell-based, rat; conditions: HGF 10 ng/ml, 5 days
Experimental: (§2) Transfected neurons were treated, fixed and stained. Briefly, cells were permeablized with 0.1% Triton X-100 detergent (Bio-Rad; Hercules, Calif.) for 10 minutes. An 8% bovine serum albumin (Intergen Company; Burlington, Mass.) in PBS was used to prevent non-specific binding for one hour at R.T.; Primary antibody incubations were at a 1:2500 dilution (see below) in 1% BSA in PBS at 4° C. overnight. Secondary antibody, 1:3000 Alexafluor 488 goat-anti-mouse (Invitrogen: Carlsbad, Calif.) was applied for two hours at room temperature. Coverslips were mounted with ProLong Gold anti-fade reagent (Invitrogen; Carlsbad, Calif.) and all washes were done with PBS. Imaging and analysis were performed as described above. For presynaptic excitatory transmission the VGLUT1 (Synaptic Systems, Goettingen, Germany) marker (Balschun, Moechars et al.) was employed and for general presynaptic transmission synapsin1 (Synaptic Systems, Goettingen, Germany) (Ferreira and Rapoport 2002) was applied. A postsynaptic function was established by PSD-95 (Milipore, Billerica, Mass.) (El-Husseini, Schnell et al. 2000). In each instance the total number of spines was counted for the treatment groups, control, Nle1-AngIV and Dihexa, to ensure an active phenotype. The total number of actin enriched spines adjacent to VGLUT1 or Synapsin were counted and converted to a percentage as the percent correlation of treatment-induced spines to presynaptic markers is a strong indicator of ability to transmit excitatory signals.
as §2, with “fixed and stained as previously described in Chapter two. Briefly, cells” for “fixed and stained. Briefly, cells”, “enriched spines (red) adjacent to” for “enriched spines adjacent to”
Transfected neurons were treated and fixed as described above. Following fixation, cells were rinsed in PBS and permeabilized with 0.1% Triton® X-100 detergent (Bin-Rad; Hercules, Calif.), followed by two rinses in PBS and blocked with 8% bovine serum albumin (Intergen Company; Burlington, Mass.) in PBS for 1 h. […]

[6] = test system: hippocampal neurons; experiment: Dendritic spine counts (spinogenesis) in mRFP-β-actin transfected dissociated hippocampal neurons; assay type: cell-based, rat; conditions: HGF 10 ng/ml, Dihexa or Nle1-AngIV 10^−12 M
Experimental: Hippocampal neurons (2×10^5 cells per square cm) were cultured from P1 Sprague Dawley rats on plates coated with poly-L-lysine from Sigma (St. Louis, Mo.; molecular weight 300,000). […] Each experiment was repeated at least three times using independent culture preparations. […] Hippocampal neurons (2×10^5 cells per square centimeter) were cultured from P1-2 Sprague Dawley rats on plates coated with poly-L-lysine from Sigma (St. Louis, Mo.; molecular weight 300,000). Hippocampal neurons were maintained in Neurobasal A media from Invitrogen (Carlsbad, Calif.) supplemented with B27 from Invitrogen, 0.5 mM L-glutamine, and […] cytosine-D-arabinofuranoside from Sigma added at 2 days in vitro. Hippocampal neurons were then cultured a further 3-7 days, at which time they were either transfected or treated with various pharmacological reagents as described in the text or figure legends. Neurons were transfected with mRFP-β-actin on day in vitro 6 […] using LipofectAMINETM 2000 (Invitrogen) according to the manufacturer's protocol. […] On DIV7 the cells were treated with vehicle (H20) or peptides (as described in the text) added to media. […] Five 50 μm long segments of dendrite from at least 10 neurons per data point were analyzed for each data point reported. Each experiment was repeated at least three times using independent culture preparations. […] A target sequence for c-Met was designed using RNAi central design program (see the website located at […].edu/). The target sequence […] NO: 2) was inserted into pSUPER vector (Oligoengine, Seattle Wash.) which drives endogenous production of shRNA under the H1 promoter. The shRNA was transfected into cells using the lipofectamine method described above. Verification of receptor knockdown was done by creating a c-[…]-Myc tagged gene product using the Gateway cloning system (Invitrogen). The Met protein coding sequence was cloned from rat whole brain cDNA using primers obtained from Integrated DNA Technologies, Inc. The amplified product was gel purified and a band corresponding to 190 kDa band excised and cloned into a […] destination vector (Gateway). Hippocampal neurons (2×10^5 cells per square cm) were cultured from P1 Sprague Dawley rats on plates coated with poly-L-lysine from Sigma (St. Louis, Mo.; molecular weight […]).

[7] = test system: c-Met receptor; experiment: c-Met phosphorylation in acute adult hippocampal slices; assay type: cell-based, rat; conditions: 30 minutes
Source text: Adult Sprague-Dawley rats (250 g+) obtained from Harlan Laboratories (Ca, USA) were anesthetized with isofluorane (Vet One™, MWI, Meridian, Id., USA) and decapitated. The brain was rapidly removed and placed into ice-chilled artificial cerebrospinal fluid (aCSF) for approximately 30 s. Both hemispheres were separated by a mid-saggital cut and both hippocampi removed. Slices were sectioned cross- and length-wise (400 μm) to ensure penetrability of the drug, using a Mcllwain tissue chopper (Brinkmann, Gomshall, UK) and transferred to a gassed (95% O2/5% CO2) incubation chamber containing aCSF for 90 minutes at room temperature. Slices were transferred to fresh tubes, aCSF was removed by careful suctioning and replaced with aCSF containing vehicle (aCSF+aCSF), 100 ng/ml with carrier free adult recombinant Hepatocyte Growth Factor (HGF) (R and D Systems, MN, USA) in aCSF, 10^−10 M Hinge (Harding lab), […], 10^−10 M Dihexa (Harding lab) in aCSF, 10^−12 M Dihexa in aCSF or 50 ng/ml HGF+10^−12 M Dihexa in aCSF for 30 minutes at 37° C. with gentle rocking. aCSF was removed and the slices were lysed using RIPA buffer (Upstate/Milipore, Billerica, Mass.) and inhibitor Cocktails I and II (Sigma, St. Louis, Mo.), sonicated on ice and clarified by centrifugation for 30 minutes, 13,000 rpm at 4° C. The supernatant was removed from the pellet and stored at −80° C. or processed immediately for gel electrophoresis.
Protein concentration of the samples was quantified using the BCA method (Pierce, Rockford, Ill.) following the manufacturers protocol. Samples were added to SDS-PAGE buffer and boiled for 10 min. before loading onto a 4-12% Bis-Tris pre-cast gel (Invitrogen, Carlsbad, Calif.) for electrophoresis. Proteins were transferred onto PVDF membranes (Bio Rad, Hercules, Calif.) and blocked with AquaBlock™ (New England Biolabs, Ipswich, Mass.) for 1 hour at room temperature (RT). Primary antibody incubation was done in AquaBlock™ with rabbit anti-Met and […] phospho-Met (Tyr1234/1235) (1:1000, Cell Signaling Technology, Danvers, Mass.) overnight at 4° C. Alternating washes were done with PBS and PBST. Secondary antibody (IRDye) (Rockland, Gilbertsville, Pa.) incubations were done in AquaBlock™ for one hour at RT. Blots were imaged using LI-COR Odyssey Infrared Imaging System (LI-COR Biosciences, Lincoln, Nebr.).

microsomal CLint at 5 µM ([1]; pooled liver microsomes): 137 µL/min/mg
Compound: CCOc1ccc2ccc(=O)oc2c1 [7-ethoxycoumarin, reference compound]

Compound: CCCC[C@@H](N)C(=O)N[C@@H](CCSC)C(=O)N[C@H](C(=O)NCCCCCC(N)=O)[C@@H](C)CC [D-Nle-Met-Ile-NH—(CH2)5—CONH2] (H-[dNle]MI[Ahx]-NH2)
inhibition of HGF dimerization [2]: unable to block dimerization at the concentration tested
inhibition of HGF-dependent MDCK cell scattering [3]: The HGF and HGF+Met groups were not different

inhibition of HGF dimerization [2]: intermediate inhibition of dimerization
Compound: CCCC[C@@H](N)C(=O)N[C@@H](Cc1c[nH]c2ccccc12)C(=O)N[C@H](C(=O)NCCCCCC(N)=O)[C@@H](C)CC [D-Nle-Trp-Ile-NH—(CH2)5—CONH2] (H-[dNle]WI[Ahx]-NH2)
inhibition of HGF-dependent MDCK cell proliferation [4]: showed inhibitory activity, albeit less than that observed with the most potent analogs
inhibition of HGF dimerization ([2]; listed as Trp): statistically different than the HGF treated group

microsomal CLint at 5 µM ([1]; microsomes): 60.2 µL/min/mg
Compound: CN1C(C(=O)Nc2ccccn2)=C(O)c2ccccc2S1(=O)=O [piroxicam, reference compound]

Compound: HGF: carrier free adult recombinant Hepatocyte Growth Factor (R and D Systems)
correlation between Synapsin and postsynaptic actin-enriched spines [5]: 98%
mean spine numbers per 50 μm dendrite length ([6]; neurons transfected with mRFP-β-actin alone, 48 hours): 20.6 spines per 50 μm dendrite leng
mean spine numbers per 50 μm dendrite length ([6]; neurons transfected with mRFP-β-actin and shMet (c-Met knock-down)): 12.4 spines per 50 μm dendrite leng
c-Met phosphorylation vs vehicle (aCSF) ([7]; saturating doses: HGF 100 ng/ml, Dihexa 10^−10 M): increased c-Met phosphorylation; also recorded: effectively augment c-Met phosphorylation
c-Met phosphorylation vs vehicle (aCSF) ([7]; sub-threshold doses: HGF 50 ng/ml, Dihexa 10^−12 M): not statistically different from control treated slices; also recorded: did not significantly increase c-Met receptor phosphorylation
